Target: T1, steroid sulfatase (STS) (Homo sapiens, UniProt P08842)
T1 sequence (P08842 22-583): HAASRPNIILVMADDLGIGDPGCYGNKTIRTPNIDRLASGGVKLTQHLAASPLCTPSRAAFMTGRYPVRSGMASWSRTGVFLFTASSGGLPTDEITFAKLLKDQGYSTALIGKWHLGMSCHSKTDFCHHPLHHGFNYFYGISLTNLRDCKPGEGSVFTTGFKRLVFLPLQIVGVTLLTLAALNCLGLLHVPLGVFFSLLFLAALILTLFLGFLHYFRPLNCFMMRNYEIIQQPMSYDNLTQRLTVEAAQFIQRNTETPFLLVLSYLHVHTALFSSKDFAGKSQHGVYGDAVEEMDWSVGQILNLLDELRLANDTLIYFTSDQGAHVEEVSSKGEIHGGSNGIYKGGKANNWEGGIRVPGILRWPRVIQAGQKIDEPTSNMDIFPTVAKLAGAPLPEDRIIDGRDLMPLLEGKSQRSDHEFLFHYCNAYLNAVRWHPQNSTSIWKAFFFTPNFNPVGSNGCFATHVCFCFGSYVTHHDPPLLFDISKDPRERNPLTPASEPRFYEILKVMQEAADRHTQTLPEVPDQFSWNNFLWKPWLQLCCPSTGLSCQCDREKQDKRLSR
Experiment: radiometric sulfatase assay, intact JEG-3 monolayer
Assay type: cell-based
Conditions: read-out: [drawing 5]; [6,7-3H]oestrone sulfate substrate, 1 h

## CN(C)S(=O)(=O)Oc1ccc(C(c2ccc(C#N)cc2)n2cncn2)cc1Br (racemic) [compound 42, 2-Bromo-4-((4-cyanophenyl)(1H-1,2,4-triazol-1-yl)methyl)phenyl dimethylsulfamate]
  IC50: > 10 µM

From PMC3170879 (Chemmedchem, 2011)
